Literature values in patent US5071850A, “2,3-dihydro-3-arylalkylaminoalkyl-4H-1,3-benzoxazin-4-one derivatives, their preparation and their application as medicinal products which are useful in therapy” (Pierre Fabre Medicament, priority 1988, dated 1991).

Details: Finkelstein and Chiang, J. Med. Chem. 11, 1038 (1968); cited from earlier work

For CCN(CC)CCN1COc2ccccc2C1=O [3-(2-diethylaminoethyl)-2,3-dihydro-4H-1,3-benzoxazin-4-one], the pharmacological result is given as “inactive”.
